Data taken from the supplement of paper PMC10307832.

Key:
Test in all cases: relative viability (nuclei count vs DMSO), 5 days (fraction); higher = more cells survive
[1] = compound: CC1=C(C(=O)N2C=CSC2=N1)CCN3CCC(=C(C4=CC=CC=C4)C5=CC=C(C=C5)F)CC3 + CC1(C)CCC(c2ccc(Cl)cc2)=C(CN2CCN(c3ccc(C(=O)NS(=O)(=O)c4ccc(N[C@H](CCN5CCOCC5)CSc5ccccc5)c(S(=O)(=O)C(F)(F)F)c4)cc3)CC2)C1 [Navitoclax] (partner 0.5 µM)
How it was run: (§1)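 For relative viability, nuclei counts in treated wells were divided by those in vehicle wells. Lung cancer cell lines had been pin-tool dosed in 1536-well plates the day after seeding and cultured for 5 days, then fixed and stained in one step (final 0.05% Triton X-100, 1% formaldehyde, 1 ug/ml Hoechst) and imaged at 4×. Doses were one drug alone or a fixed anchor-drug dose plus five library-drug doses (not always all listed) in √10 steps, and values are duplicate-plate medians.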

[2] = compound: CC1=C(C(=O)N2C=CSC2=N1)CCN3CCC(=C(C4=CC=CC=C4)C5=CC=C(C=C5)F)CC3 + C[C@@H](Oc1cc(-c2cnn(C3CCNCC3)c2)cnc1N)c1c(Cl)ccc(F)c1Cl [Crizotinib] (partner 1 µM)
How it was run: as §1

[3] = compound: CC1=C(C(=O)N2C=CSC2=N1)CCN3CCC(=C(C4=CC=CC=C4)C5=CC=C(C=C5)F)CC3 + O=C(CCCCCCC(=O)Nc1ccccc1)NO [Vorinostat] (partner 1 µM)
How it was run: as §1

[4] = compound: CC1=C(C(=O)N2C=CSC2=N1)CCN3CCC(=C(C4=CC=CC=C4)C5=CC=C(C=C5)F)CC3 + Cc1nc(Nc2ncc(C(=O)Nc3c(C)cccc3Cl)s2)cc(N2CCN(CCO)CC2)n1 [Dasatinib] (partner 0.075 µM)
How it was run: as §1

Cell Line	relative viability ([1]; first compound 0.08 µM)	relative viability ([1]; first compound 0.253 µM)	relative viability ([1]; first compound 0.8 µM)	relative viability ([1]; first compound 2.53 µM)	relative viability ([1]; first compound 8 µM)	relative viability ([2]; first compound 0.08 µM)	relative viability ([2]; first compound 0.253 µM)	relative viability ([2]; first compound 0.8 µM)	relative viability ([2]; first compound 2.53 µM)	relative viability ([2]; first compound 8 µM)	relative viability ([3]; first compound 0.08 µM)	relative viability ([3]; first compound 0.253 µM)	relative viability ([3]; first compound 0.8 µM)	relative viability ([3]; first compound 2.53 µM)	relative viability ([3]; first compound 8 µM)	relative viability ([4]; first compound 0.08 µM)	relative viability ([4]; first compound 0.253 µM)	relative viability ([4]; first compound 0.8 µM)	relative viability ([4]; first compound 2.53 µM)	relative viability ([4]; first compound 8 µM)
HCC-15	0.697	0.601	0.762	0.791	0.528	0.804	0.88	0.933	0.795	0.576	0.927	0.96	0.869	0.788	0.606	0.638	0.561	0.643	0.678	0.586
HARA	1.18	1.33	1.16	1.23	0.537	1	1.21	1.25	1.04	0.791	0.477	0.545	0.513	0.665	0.372	0.243	0.23	0.265	0.229	0.136
LCLC-97TM1	0.263	0.306	0.347	0.537	0.249	0.453	0.367	0.307	0.263	0.343	0.521	0.831	0.754	0.734	0.415	0.857	0.773	0.949	0.92	0.658
NCI-H1793	0.376	0.512	0.395	0.507	0.374						0.599	0.988	0.577	0.891	0.535	0.363	0.328	0.415	0.467	0.233
EMC-BAC-2	0.906	0.95	1.28	1.16	0.707	0.725	0.801	0.696	0.766	0.676	0.416		0.343	0.398	0.377	0.287	0.329	0.277	0.328	0.298
NCI-H520	1.04	0.939	1.21	1.35	0.701	0.679	0.608	0.858	0.58	0.476	0.729	0.751	0.743	0.962	0.489	0.208	0.195	0.221	0.209	0.182
H3255	0.416	0.393	0.557	0.542	0.419	0.776	0.967	0.798	0.916	0.752	0.821	0.922	0.841	0.836	0.666	0.349	0.357	0.307	0.339	0.375
NCI-H1355	0.976	0.984	0.996	1.09	0.787	1.12	1.16	1.04	1.17	0.712	0.588	0.602	0.6	0.611	0.529	0.698	0.605	0.769	0.771	0.632
NCI-H1563						0.775	0.842	0.793	0.817	0.87						0.502	0.531	0.485	0.5	0.5
NCI-H1395	1.19	1.46	1.02	1.05	1.05						0.714	0.786	0.525	0.691	0.646	0.417	0.406	0.416	0.394	0.438
PC-14	0.655	0.974	1.05	1.09	0.449	0.919	0.907	0.875	1.13	0.716	0.677	0.901	0.866	0.762	0.623	0.228	0.284	0.21	0.237	0.282
201T	1.19	1.16	1.21	1.22	1.23	1.02	1.03	1.01	1.05	1.08	1.07	0.93	1.02	1.01	0.595	0.614	0.628	0.541	0.713	0.569
NCI-H1944	1.03	0.916	1.02	1.06	1.06	1.06	1.08	1.22	1.14	1.07	0.442	0.502	0.499	0.54	0.377	0.243	0.237	0.193	0.215	0.242
NCI-H647	1.12	1.13	1.11	1.2	0.476	1.09	1.61	1.01	1.34	0.476	0.681	0.574	0.603	0.514	0.333	0.12	0.15	0.167	0.18	0.0953
NCI-H1975	1.08	1.02	1.17	1.26	0.573	0.984	0.96	0.93	0.943	0.583	0.761	0.748	0.748	0.774	0.492	0.355	0.395	0.345	0.386	0.304
NCI-H2009	1.15	1.14	1.18	1.22	1.09	1.25	1.12	0.968	1.14	1.11	0.71	0.715	0.728	0.778	0.556	0.369	0.304	0.28	0.332	0.285
NCI-H3122	1.11	1.04	1.03	1.04	0.965	0.286	0.262	0.258	0.316	0.267	0.875	1.1	1.08	0.987	0.516	1.02	0.769	0.781	1.06	0.524
